Experimental data: patent US20150087627A1, “COMBINATION OF KINASE INHIBITORS AND USES THEREOF” (Intellikine LLC, priority 2011, published 2015)

Key:
[1] = tested on: MDA-MB-361 human breast cancer xenografts; assay: Antitumor activity, multiple dosing schedules, MDA-MB-361 xenografts (Example 41); type: in vivo, Mus musculus; conditions: Day 28
Experimental: Compound A was prepared in 100% PEG400 every 5-7 days and stored at approximately 25° C., shielded from light. The control article used in this study was 100% PEG400.
Low passage MDA-MB-361 cells were grown in Dulbecco's Modified Eagle's Medium (DMEM) media supplemented with 20% fetal bovine serum (FBS) and 1× penicillin/streptomycin (Invitrogen) until approximately 80% confluency was reached. Prior to injection, the cells were detached with Trypsin (Invitrogen), washed twice with phosphate buffered saline (PBS), and resuspended in RPMI (Roswell Park Memorial Institute) media (Invitrogen) without supplements. Cells were resuspended to a final concentration of 10.0×10^7 cells/mL in DMEM media without supplements, with 50% Matrigel (BD Biosciences). MDA-MB-361 cells (10.0×10^6 cells per animal in 0.1-mL injection volume) were implanted SC into the flank of female athymic nude mice. The animals used in this study are described in the following table.
4-5 week old female athymic nude mice were inoculated SC in flank (cell suspension in serum free DMEM and 50% Matrigel) with 10.0×10^6 MDA-MB-361 cells. Tumor growth was monitored with vernier calipers. The mean TV (MTV) was calculated using the formula V=W^2×L/2. When the MTV reached approximately 280 mm^3, the animals were randomized into 14 treatment groups (n=5/group). […] Tumor growth and body weight were measured twice per week. Percent TGI and body weight change were calculated on Day 28. Treatment started on Day 0 for 28 days. Antitumor activity was determined on day 28 of treatment by calculating the percent TGI using
Percent TGI=(mean tumor volume [MTV] of the control group−MTV of a treated group)/MTV of the control group×100. Equation 1
The differences in the tumor growth trends over time between pairs of treatment groups were assessed using linear mixed effects regression models. These models account for the fact that each animal was measured at multiple time points. A separate model was fit for each comparison, and the area under the curve (AUC) values for each treatment group were calculated using the predicted values from the model. The percent decrease in AUC (ΔAUC) relative to the reference group was then calculated.
Drug combinations were assessed for synergy using observed AUC values. The change in AUC relative to the control was calculated for both single agent treatment groups as well as the combination group. The interaction between the two compounds was then assessed by comparing the change in AUC observed in the combination group to the sum of the changes observed in both single agents. The results can be divided into four categories: synergistic, additive, sub-additive, and antagonistic. Further details regarding combination analyses are provided in the appendix. All p values less than 0.05 were considered significant.

[2] = tested on: PI3 kinase signaling pathway in MDA-MB-361, HCC-1419, NCI-H1048; assay: Cellular signaling immunoblot in human tumor cell lines; type: cell-based; conditions: Compound B 5-100 nM, Compound A 1 and 3 μM, 2 or 24 hours, Western blot, FIG. 15
Experimental: Compound A was synthesized at Intellikine and was supplied as a stock of 10 mM in 100% DMSO and diluted in the respective cell line's growth media.
Prior to treatment, cells were plated at 2×10^5 cells/well in 12-well plates in normal growth media and grown to 80% confluence.
Media was aspirated, cells were washed with 1×PBS, Ice cold 1× Cell Lysis Buffer was prepared from 10× stock and 100 μM 4-(2-Aminoethyl)benzenesulfonyl fluoride hydrochloride (AEBSF) and 1 mM sodium orthovanadate […] was added. Cells were lysed by adding 1× Cell Lysis Buffer (100 μL per well of 12-well plate of cells). Cells incubated on ice for 20 to 30 minutes to allow complete lysis, and lysates were transferred to microcentrifuge tubes, sonicated for 10 seconds, and subjected to microcentrifugation at 14,000×g for 10 minutes at 4° C. Cleared supernatants were transferred to fresh tubes, and stored at −20° C. for Western blot analysis. […] Molecular weight markers were loaded, the gel electrophoresed at 200V for 40 minutes.
The gels were electrotransferred to nitrocellulose membranes, and incubated in blocking buffer (Tris buffered saline plus 0.5% Tween-20 (TBS/T)+5% bovine serum albumin (BSA)) for 1 hour at room temperature. […]

| Compound | TGI ([1]; 60 mg/kg QD PO) [%] | TGI ([1]; 70 mg/kg QD 3on/4off PO) [%] | TGI ([1]; 140 mg/kg QD 3on/4off PO) [%] | TGI ([1]; 210 mg/kg QW PO) [%] | inhibition of phosphorylation of downstream targets AKT, S6, 4E-BP1 [2] | TGI ([1]; 0.3 mg/kg QD PO) [%] | TGI ([1]; 1.0 mg/kg QD 3on/4off PO) [%] | TGI ([1]; 3.0 mg/kg QW PO) [%] |
| --- | --- | --- | --- | --- | --- | --- | --- | --- |
| Nc1nc2cc(-c3ccc4ncc(C(=O)N5CCOCC5)n4c3)ccc2o1 [Compound A] | 84.5 | 76.0 | 84.2 | 64.7 | potently inhibited |  |  |  |
| CC(C)n1nc(-c2ccc3oc(N)nc3c2)c2c(N)ncnc21 [Compound B] |  |  |  |  | potently inhibited | 71.1 | 63.6 | 52.7 |
